Assay results: patent publication US9708321B2, “Spiro-quinazolinone derivatives and their use as positive allosteric modulators of mGluR4” (Merck Patent GmbH, priority 2013, dated 2017)

What follows are compounds tested against T1, hmGluR4 (Homo sapiens, UniProt Q14833) (assay: HEK-293 mGluR4 cells cAMP assay with EC20 L-Glutamate (HTRF)). Conditions: positive allosteric activity at EC20 L-Glutamate, 10 μM Forskolin, HEK293T mGluR4 cells, cAMP HTRF; read-out: hrmGluR4/HEK293T-hmGluR4 (EC50).
T1 construct: host or cells: HEK293T
T1 sequence (Q14833 33-912): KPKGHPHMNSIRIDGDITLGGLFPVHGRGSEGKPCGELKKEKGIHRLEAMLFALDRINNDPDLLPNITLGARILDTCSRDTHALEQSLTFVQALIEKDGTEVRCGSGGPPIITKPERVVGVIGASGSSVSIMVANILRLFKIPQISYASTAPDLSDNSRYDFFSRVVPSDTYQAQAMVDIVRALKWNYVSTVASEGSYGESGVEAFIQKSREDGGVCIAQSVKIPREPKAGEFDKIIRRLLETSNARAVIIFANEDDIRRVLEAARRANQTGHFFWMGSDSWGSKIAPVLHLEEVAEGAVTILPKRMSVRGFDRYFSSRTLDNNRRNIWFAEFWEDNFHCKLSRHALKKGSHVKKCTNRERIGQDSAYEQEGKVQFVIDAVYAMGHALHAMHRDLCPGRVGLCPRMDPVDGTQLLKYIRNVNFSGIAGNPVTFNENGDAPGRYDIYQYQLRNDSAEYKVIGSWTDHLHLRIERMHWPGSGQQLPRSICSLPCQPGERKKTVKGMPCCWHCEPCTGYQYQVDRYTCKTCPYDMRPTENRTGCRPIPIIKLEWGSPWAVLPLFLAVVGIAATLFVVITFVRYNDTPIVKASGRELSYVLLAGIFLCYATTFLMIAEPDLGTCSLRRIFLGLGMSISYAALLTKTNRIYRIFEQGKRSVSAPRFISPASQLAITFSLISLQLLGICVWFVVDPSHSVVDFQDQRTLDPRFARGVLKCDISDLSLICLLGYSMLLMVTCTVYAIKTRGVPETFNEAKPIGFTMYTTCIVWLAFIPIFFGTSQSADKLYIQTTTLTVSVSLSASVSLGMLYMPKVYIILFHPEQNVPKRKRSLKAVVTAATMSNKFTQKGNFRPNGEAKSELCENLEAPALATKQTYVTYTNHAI
Assay type: cell-based
Description: II. Biological Assays HEK-293 mGluR4 Cells cAMP Assay with EC20 L-Glutamate
Using mGluR4 suspension cell format, 10 μM Forskolin (final conc.) used to induce the production of cAMP.
Test the positive allosteric activity of the compounds of the invention at EC20 (2.3 μM for mGluR4 and 4.3 μM for mGluR6) L-Glutamate,
cAMP dymanic2 kit is intended for the direct quantitative determination of cAMP and its principle is based on HTRF technology.
• Cells: HEK293T mGluR4 cells from Multispan, cat# C1191a lot# C1191a-040910 • Culture Media: DMEM+GlutaMAX1+10% dialyzed FBS, 100 mM Sodium Pyruvate, 1 ug/ml puromycin. • Glutamine Starvation Media: DMEM without GlutaMax for plating the cells (glutamine starvation overnight). DMEM high Glucose, without phenol red, glutamine, or sodium pyruvate+10% dialyzed FBS, 100 mM Sodium Pyruvate, 1 ug/ml puromycin, 10 mM Hepes. • Hanks' balanced Salt Solution, HBSS from Invitrogen • Greiner 384 well white low volume high base plate (784075) • cAMP dynamic2 from Cisbio Bioassays • Glutamate: L-Glutamaic acid, monosodium salt, Monohydrate, 98%, from Sigma-Aldrich • Cell Preparation: split cells at 80%-90% confluence. The following day, rinse the cells with DMEM without GlutaMax and change to Glutamine Starvation Media. Incubate overnight. Assay: • Prepare compound plate: Perform compound serial dilution (uses Matrix 4341 plate), using the Bravo liquid handling platform protocol (compound serial dilution) which adds DMSO to columns 1-24 (except cols. 3 and 13). Serial dilute compounds located in columns 3 and 13 at a 1:3 ratio; 10 points (10 ul of 3 mM compound into 20 ul DMSO). Use the Bravo liquid handling platform to transfer 1 ul from the serial dilution plate into Matrix 4314 plate to create stamp plates. Prepare Compound Dilution Buffer: • Dilute 20 mM Forskolin (in DMSO) stock solution in HBSS buffer to make a 20 uM solution (forskolin buffer; 2× solution). To the forskolin buffer, add glutamate to a concentration of 8 uM (compound dilution buffer; 2× EC20 glutamate and forskolin). • Using a multidrop, add 50 ul/well of compound dilution buffer to columns 1-22 of the 2 ul compound stamp plate. Columns 23 and 24 receive forskolin buffer containing 400 uM glutamate (EC100 glutamate; 2× solution). Columns 1 and 2 receive compound dilution buffer containing EC20 glutamate, which is the basal control. • Add a glutamate dose response to row P of compound plate. Prepare the dose response by serial diluting glutamate at a 1:3 ratio in forskolin buffer starting at 2 mM glutamate (2×). Dilute the glutamate 9 times and transfer to compound plate. Prepare Cell Plates: • Harvest cells: Rinse cells with pre-warmed HBSS-10 mM HEPES (without Ca Mg) and dissociate the cells from the flask with versene. Centrifuge the cells, remove the supernatant and suspend in pre-warmed HBSS+10 mM Hepes. Count the cells and centrifuge. Remove the supernatant and suspend the cells in HBSS+Hepes (with Ca Mg) at a density of 400,000 cells/ml. Perform Assay: • Dispense 5 ul from the diluted compound plate into Greiner low volume cell plate using the Bravo liquid handling platform. Using a Multidrop with the small tubing cassette, dispense 5 ul of cells (2000 cells/well) onto the compounds contained in the low volume plates. Incubate the cells at 37° C., 5% CO2 for 30 minutes in the incubator. Assay for cAMP: • Prepare cAMP-d2 and anti-cAMP-Crytate according to the instructions for the two step assay (see Cisbio manual) and add 10 ul of the mixed reagent to each well of the assay plate using the Multidrop. Incubate at room temperature for 60 minutes and read on the Envision plate reader using the mGluR low volume cAMP HTRF 384 well protocol.
CCC(c1ccccc1)N1CCC2(CC1)Nc1cc(Br)ccc1C(=O)N2c1ccc(OC(F)(F)F)cc1 (centres unmarked) [Compound 48, 7′-Bromo-1-(1-phenylpropyl)-3′-(4-(trifluoromethoxy)phenyl)-1′H-spiro[piperidine-4,2′-quinazolin]-4′(3′H)-one] gave an EC50 of under 1000 nM.
Compound O=C1c2ccc(Br)cc2NC2(CCN(Cc3ccccc3O)CC2)N1c1ccc(OC(F)(F)F)cc1 [Compound 49, 7′-Bromo-1-(2-hydroxybenzyl)-3′-(4-(trifluoromethoxy)phenyl)-1′H-spiro[piperidine-4,2′-quinazolin]-4′(3′H)-one] has an EC50 of under 1000 nM.
For COc1ccc(N2C(=O)c3ccccc3NC23CN(Cc2ccccc2Cl)C3)cc1 [Compound 50, 1-(2-Chlorobenzyl)-3′-(4-methoxyphenyl)-1′H-spiro[azetidine-3,2′-quinazolin]-4′(3′H)-one], the EC50 was under 1000 nM.
Compound O=C1c2ccc(F)cc2NC2(CCN(Cc3ccc(F)c(F)c3)CC2)N1c1ccc(Br)cc1 [Compound 51, 3′-(4-Bromophenyl)-1-(3,4-difluorobenzyl)-7′-fluoro-1′H-spiro[piperidine-4,2′-quinazolin]-4′(3′H)-one] has an EC50 of under 1000 nM.
With O=C1c2ccc(Br)cc2NC2(CCN(Cc3ccc(F)c(F)c3)CC2)N1c1ccc(C(F)(F)F)cc1 [Compound 52, 7′-Bromo-1-(3,4-difluorobenzyl)-3′-(4-(trifluoromethyl)phenyl)-1′H-spiro[piperidine-4,2′-quinazolin]-4′(3′H)-one] the EC50 was under 1000 nM.
Compound O=C1c2ccc(F)cc2NC2(CN(C(c3cccc(F)c3)C(F)(F)F)C2)N1c1ccc(OC(F)(F)F)cc1 (centres unmarked) [Compound 53, 7′-Fluoro-1-(2,2,2-trifluoro-1-(3-fluorophenyl)ethyl)-3′-(4-(trifluoromethoxy)phenyl)-1′H-spiro[azetidine-3,2′-quinazolin]-4′(3′H)-one] has an EC50 of under 1000 nM.
In the case of COc1ccc(N2C(=O)c3ccccc3NC23CCN(Cc2ccc(Cl)c(Cl)c2)CC3)cc1 [Compound 54, 1-(3,4-Dichlorobenzyl)-3′-(4-methoxyphenyl)-1′H-spiro[piperidine-4,2′-quinazolin]-4′(3′H)-one], the EC50 is reported as under 1000 nM.
COc1ccc(N2C(=O)c3ccccc3NC23CCN(Cc2cccc(OC(F)(F)F)c2)CC3)cc1 [Compound 55, 3′-(4-Methoxyphenyl)-1-(3-(trifluoromethoxy)benzyl)-1′H-spiro[piperidine-4,2′-quinazolin]-4′(3′H)-one] showed an EC50 of under 1000 nM.
For COc1ccc(N2C(=O)c3ccccc3NC23CN(Cc2ccc(Cl)c(Cl)c2)C3)cc1 [Compound 56, 1-(3,4-Dichlorobenzyl)-3′-(4-methoxyphenyl)-1′H-spiro[azetidine-3,2′-quinazolin]-4′(3′H)-one], the EC50 was under 1000 nM.
In the case of O=C1c2ccc(Br)cc2NC2(CCN(Cc3cccc4ncccc34)CC2)N1c1ccc(OC(F)(F)F)cc1 [Compound 57, 7′-Bromo-1-(quinolin-5-ylmethyl)-3′-(4-(trifluoromethoxy)phenyl)-1′H-spiro[piperidine-4,2′-quinazolin]-4′(3′H)-one], the EC50 is reported as under 1000 nM.
Compound O=C(OCC1CC1)c1ccc2c(c1)NC1(CCN(Cc3ccc(F)c(F)c3)CC1)N(c1ccc(OC(F)(F)F)cc1)C2=O [Compound 58, Cyclopropylmethyl 1-(3,4-difluorobenzyl)-4′-oxo-3′-(4-(trifluoromethoxy)phenyl)-3′,4′-dihydro-1′H-spiro[piperidine-4,2′-quinazoline]-7′-carboxylate] has an EC50 of under 1000 nM.
COc1ccc(N2C(=O)c3ccc(OC)cc3NC23CCN(Cc2ccc(Cl)s2)CC3)cc1 [Compound 59, 1-((5-Chlorothiophen-2-yl)methyl)-7′-methoxy-3′-(4-methoxyphenyl)-1′H-spiro[piperidine-4,2′-quinazolin]-4′(3′H)-one] showed an EC50 of under 1000 nM.
In the case of COc1ccc(N2C(=O)c3ccc(C)cc3NC23CCN(Cc2ccc(F)c(F)c2)CC3)cc1 [Compound 60], the EC50 is reported as under 1000 nM.
CCC(c1ccccc1)N1CCC2(CC1)Nc1cc(Br)ccc1C(=O)N2c1ccc(Cl)cc1 (centres unmarked) [Compound 61, 7′-Bromo-3′-(4-chlorophenyl)-1-(1-phenylpropyl)-1′H-spiro[piperidine-4,2′-quinazolin]-4′(3′H)-one] gave an EC50 of under 1000 nM.
